{"source": "patent US5780509A", "about": "“Compound bearing two, 2,6-diiodophenol-4-YL groups and diagnostic drug for iodine allergy” (Muromachi Kagaku Kogyo Kaisha, Ltd., priority 1994, dated 1998)", "key": {"anti-iodine antibody": {"tested_on": "anti-iodine antibody", "assay": "ELISA inhibition potency (OD50) on anti-iodine antibody", "type": "binding, guinea-pig", "details": "serial twofold dilution, equal volume of 50-fold diluted anti-iodine antiserum; read-out: Inhibitory activity (OD50): concentration which decreased optical density of ELISA to a half of the control", "description": "Guinea-pigs were immunized with iodine by injecting subcutaneously 1 mg of iodine containing potassium iodide solution treated with complete Freund's adjuvant seven times at intervals of 2 weeks, and anti-iodine antiserum was obtained from these animals. Antibody titers of the sera were determined by enzyme linked immunosorbent assay (ELISA) using 96 well microplate coated with iodinated guinea pig serum albumin (I-GSA) ELISA inhibition activities of the following compounds were studied. The compounds used were potassium iodide, tyrosine and its derivatives such as L-tyrosine, monoiodo-L-tyrosine, diiodotyrosine, hexaiodo-L-trityrosine, L-hexatyrosine and 12 iodo-L-hexatyrosine, and iodinated X-ray contrast media such as amidotrizoic acid, iodamide, ioxaglic acid, iohexol, iopamidol and iomeprol.\nELISA inhibition study was performed as follows. Antibody concentration of anti-iodine antiserum gave the maximum optical density in ELISA till one hundredfold serum dilution. Accordingly, seven steps of twofold serial dilution of anti-iodine antiserum, starting from 50-fold serum dilution, were made with physiological saline as a diluent. To each of the serially diluted sera, were added equal volume of solution containing each of the test compounds described above. After overnight incubation at 4 C, antibody activity was determined by ELISA. Phosphate buffered physiological saline (PBS) was used as a control. ELISA inhibitory activities of the test compounds were determined at the serum dilution which gave about 50% of the maximum optical density (OD415nm =2.6) of ELISA of control at serum dilution of one hundredfold. The inhibitory activity was calculated by the following calculation formula.\nIn the next, ELISA inhibition study was undertaken to determine the potency of ELISA inhibitory activity of active compounds. […] The inhibitory activity was expressed as the concentration which decreased optical density of ELISA to a half (OD50) of the control."}, "guinea-pigs [1]": {"tested_on": "guinea-pigs", "assay": "Passive cutaneous anaphylaxis (PCA) reaction, sensitization antigenicity", "type": "in vivo, guinea-pig", "source_text": "(§1) Sensitization antigenicity of iodinated tyrosine derivative was studied.\n(§2) Trityrosine was selected as the tyrosine derivative, and this was iodinated to obtain iodinated trityrosine. Guinea-pigs were sensitized with iodinated trityrosine. As a positive control, employed was iodinated guinea-pig serum albumin (GSA). Guinea-pigs of the control group were sensitized with iodinated GSA. Sensitization was examined by active systemic anaphylaxis (ASA) reaction and passive cutaneous anaphylaxis (PCA) reaction.\n(§3) Sensitization: Each of iodinated trityrosine and iodinated GSA was emulsified with complete Freund's adjuvant, and injected subcutaneously to the back of animals at a dose of 10 mg/animal (2.5 mg, respectively, at 4 sites), 3 times at intervals of 2 weeks.\nPCA reaction: The blood was taken from each animal, and the serum was separated one week after the last sensitization injection. The serum was diluted fivefold with physiological saline, and injected intradermally to normal guinea-pigs at a dose of 0.1 ml/site. PCA reaction was provoked by intravenous injection of iodinated GSA (1 mg/animal) and Evans blue solution to the recipient animals 4 hours after the intradermal serum injection. PCA reaction was judged as being positive when the diameter of blue spot at the site of intradermal injection was 5 mm or larger."}, "guinea-pigs [2]": {"tested_on": "guinea-pigs", "assay": "Active systemic anaphylaxis (ASA) reaction, sensitization antigenicity", "type": "in vivo, guinea-pig", "source_text": "as §1, §2, §3\nASA reaction: Iodinated GSA (1 mg/animal) was injected intravenously to the animals one week after the last sensitization injection, by which ASA reaction was elicited. The animals which indicated symptoms of anaphylactic shock were judged as being positive."}, "[3]": {"tested_on": "guinea-pigs immunized with iodine (iodine-sensitized) and non-sensitized guinea-pigs", "assay": "Active cutaneous anaphylaxis (ACA) reaction, elicitation antigenicity", "type": "in vivo, guinea-pig (male SPF, Hartley strain)", "design": "key to Mean diameter of blue spots, non-sensitized guinea-pig / Mean diameter of blue spots, iodine-sensitized guinea pig (second value) / Mean diameter of blue spots, iodine-sensitized guinea pig (first value): --: Negative response; **: Weak response", "details": "for Mean diameter of blue spots, iodine-sensitized guinea pig (first value) / Mean diameter of blue spots, iodine-sensitized guinea pig (second value) / Mean diameter of blue spots, non-sensitized guinea-pig: 30 min", "source_text": "The elicitation antigenicity of iodinated tyrosine derivatives was studied in the bases of the active cutaneous anaphylaxis (ACA) reaction in guinea-pigs immunized with iodine.\nAnimals: Male SPF guinea-pigs of Hartley strain, weighing 300~350 g were purchased from Charles River Japan Co., Ltd. These were immunized after having been acclimated for one week.\nSensitization: A solution of iodine potassium iodide (Wako Junyaku, special grade reagent) and complete Freund's adjuvant (Difco) were mixed in equal amounts to form an emulsion. This was administered subcutaneously into the back of guinea-pigs at a dose of 2 mg of iodine per animal 3 times at intervals of 2 weeks. Active cutaneous anaphylaxis (ACA) was elicited 2 weeks after the last sensitization injection.\nACA Induction: 2% Evans blue physiological solution (0.5 ml/animal) was administered intravenously to guinea-pigs, and immediately thereafter 0.1 ml of an elicitation antigen was administered intradermally into the back, and after 30 min. the existence of pigment leakage at the intradermally injected sites was observed.\nElicitation antigen: Iodinated dityrosine, iodinated trityrosine, iodinated dityrosylphenylalanine were administered intracutaneously at 0.1 ml/site. Guinea-pig serum albumin (fraction V: Sigma) was iodinated and used as a positive control. Corresponding noniodinated ones were also administered intradermally as negative controls.\nIodination reaction: To a 50 mM boric acid buffer solution (pH 9.5) of 10 mg/ml of dityrosine, trityrosine, or dityrosylphenylalanine (all produced by Sigma Co., Ltd.) or guinea-pig serum albumin (abbreviated hereafter as GSA), a 0.5M solution of iodine was added at a ratio of 10:1, and these were reacted at 37 C. overnight. The excess iodine in the reaction mixture was reduced by adding sodium thiosulfate (Nakarai Chemical Co., Ltd.). For purification of the iodinated tyrosine derivatives, the reaction mixture was extracted with ethyl acetate and dried with magnesium sulfate, and hexane was added to obtain crystals. For purification of the iodinated GSA, the reaction mixture was purified by passing it through a Sephadex G25 column."}}, "note": "Non-standard residues stand in square brackets, D forms with d. Residues, ends and D or L forms follow the SMILES beside them. Tyr(3,5-I2) = N[C@@H](Cc1cc(I)c(O)c(I)c1)C(=O)O", "data": [{"smiles": "N[C@@H](Cc1cc(I)c(O)c(I)c1)C(=O)N[C@@H](Cc1cc(I)c(O)c(I)c1)C(=O)N[C@@H](Cc1cc(I)c(O)c(I)c1)C(=O)O", "note": "[Iodinated trityrosine, hexaiodo-L-trityrosine] (H-[Tyr(3,5-I2)]-[Tyr(3,5-I2)]-[Tyr(3,5-I2)]-OH)", "values": [{"measurement": "IC50", "setting": "anti-iodine antibody", "value": 125, "unit": "µM"}, {"measurement": "PCA reaction (in words)", "setting": "guinea-pigs [1]; sensitized group", "value": "negative in all animals"}, {"measurement": "Anti-iodine antibody production / sensitization antigenicity (in words)", "setting": "guinea-pigs [1]; sensitized guinea-pigs, from ASA and PCA reactions", "value": "no anti-iodine antibody was produced"}, {"measurement": "PCA reaction: number of positive animal/number of sensitized animal", "setting": "guinea-pigs [1]; serum diluted fivefold, 0.1 ml/site, iodinated GSA 1 mg/animal i.v., positive = blue spot 5 mm or larger", "value": "0/5"}, {"measurement": "ASA reaction: number of positive animal/number of sensitized animal", "setting": "guinea-pigs [2]; sensitized 10 mg/animal s.c. 3 times, elicited with iodinated GSA 1 mg/animal i.v.", "value": "0/5"}, {"measurement": "ASA reaction (in words)", "setting": "guinea-pigs [2]; sensitized group", "value": "negative in all animals"}, {"measurement": "Mean diameter of blue spots, iodine-sensitized guinea pig (first value)", "setting": "[3]; 1 μg/site intradermal", "value": 6.0, "unit": "mm"}, {"measurement": "Mean diameter of blue spots, iodine-sensitized guinea pig (second value)", "setting": "[3]; 1 μg/site intradermal", "value": "--"}, {"measurement": "Mean diameter of blue spots, non-sensitized guinea-pig", "setting": "[3]; 1 μg/site intradermal", "value": "--"}, {"measurement": "Mean diameter of blue spots, iodine-sensitized guinea pig (first value)", "setting": "[3]; 10 μg/site intradermal", "value": 8.5, "unit": "mm"}, {"measurement": "Mean diameter of blue spots, iodine-sensitized guinea pig (second value)", "setting": "[3]; 10 μg/site intradermal", "value": 4.0, "unit": "mm"}, {"measurement": "Mean diameter of blue spots, non-sensitized guinea-pig", "setting": "[3]; 10 μg/site intradermal", "value": "--"}, {"measurement": "Mean diameter of blue spots, iodine-sensitized guinea pig (first value)", "setting": "[3]; 100 μg/site intradermal", "value": 11.0, "unit": "mm"}, {"measurement": "Mean diameter of blue spots, iodine-sensitized guinea pig (second value)", "setting": "[3]; 100 μg/site intradermal", "value": 6.0, "unit": "mm"}, {"measurement": "Mean diameter of blue spots, non-sensitized guinea-pig", "setting": "[3]; 100 μg/site intradermal", "value": "--"}, {"measurement": "ACA reaction (in words)", "setting": "[3]; intradermal injection, guinea-pigs sensitized with iodine", "value": "ACA reaction was elicited"}]}]}
